The text below walks through data of PMC9304199, “A small molecule CFTR potentiator restores ATP‐dependent channel gating to the cystic fibrosis mutant G551D‐CFTR” (British Journal of Pharmacology, 2022).

In one test the target is F508del‐CFTR (Homo sapiens, UniProt P13569, DEL508-508). The test is described as follows: Thermal stability (deactivation) of F508del‐CFTR in excised inside-out membrane patches at 37°C. It is filed as biochemical. On the set-up: expressed in transfected cells; BHK cells from MD Amaral. The protocol:
To investigate the effects of CFTR potentiators on the plasma membrane stability of F508del‐CFTR, we monitored its thermal stability in excised inside‐out membrane patches at 37°C (Wang et al., [2014]). Membrane patches were excised and F508del‐CFTR Cl^− channels activated at 27°C. Once channels were fully activated and potentiated, the temperature of the intracellular solution was increased to 37°C, which took 2–3 min. To quantify data, we calculated open probability (Po) and normalised Po values in 30‐s intervals over a 9‐min period (Wang et al., [2014]).

Test [1] addresses T1, native CFTR, genotype F508del/G551D (Homo sapiens, UniProt P13569, G551D).
T1 construct: For functional studies of native CFTR, we used primary cultures of human bronchial epithelial cells; host or cells: primary human bronchial epithelial cells, F508del/G551D, air-liquid interface cultures, studied at 35°C
The test can be described thus: Ussing chamber CFTR-mediated short-circuit current (Isc) in F508del/G551D human bronchial epithelial cells. It is filed as cell-based. The note with it: for EC50: F508del/G551D epithelia of hBE cells, Isc, 35°C, read-out: EC50 (μM) (95% CI); for Emax: HBE, read-out: Maximal effect (%) (95% CI). The text has this:
For functional studies of native CFTR, we used primary cultures of human bronchial epithelial cells of genotypes F508del/F508del and F508del/G551D. Passage 1 (P1) human bronchial epithelial cells from SH Randell (University of North Carolina [UNC] Cystic Fibrosis Center Tissue Procurement and Cell Culture Core) were differentiated at an air–liquid interface as described by Neuberger et al., ([2011]) with some modifications. The research conducted on human cells at UNC has been verified as compliant with Pfizer policies, including institutional review board or institutional ethics committee approval. Cells were thawed and expanded in BEGM™ Bronchial Epithelial Cell Growth Medium (cat. no. CC‐3170, Lonza, USA) supplemented with retinoic acid (10 nM) and banked at P2. For functional assays, P2 cells were expanded to P4, and 5 × 10^5 P4 human bronchial epithelial cells were seeded in growth medium on Snapwell filter inserts (cat. no. 3801, Corning, NY, USA). Cells were switched to differentiation medium the following day and cultured submerged for 3 days before the medium was removed from the apical membrane to establish an air–liquid interface. Thereafter, the basolateral medium was changed every 2–3 days and mucus washed from the apical membrane every 2–3 weeks and the day prior to use starting 21 days after initiating air–liquid interface culture.
After >30 days of air–liquid interface culture on Snapwell filter inserts, human bronchial epithelial cells formed well differentiated, electrically tight epithelia (Rt > 200 Ω cm^2). Prior to study, F508del/F508del and F508del/G551D human bronchial epithelial cell cultures were incubated at 37°C and 5% CO2.
Epithelia were mounted in Ussing chambers and data acquired and analysed as described above for Ussing chamber studies of FRT cells heterologously expressing CFTR with the following exceptions. Both the apical and basolateral membranes were bathed in solutions containing (mM): 137 NaCl, 4 KCl, 1.8 CaCl2, 1 MgCl2, 10 Na HEPES, and 10 glucose (pH 7.4 with NaOH). Epithelia of F508del/G551D human bronchial epithelial cells were studied at 35°C, whereas those of F508del/F508del human bronchial epithelial cells were assayed at 27°C to maintain the apical membrane expression of F508del‐CFTR. After cancelling voltage offsets, transepithelial voltage was clamped at 0 mV and short‐circuit current (Isc) recorded continuously. The protocol to record CFTR‐mediated Isc was the same as for ICl ^apical measurements except that amiloride (30 μM, apical solution) was added to inhibit the epithelial Na^+ channel before forskolin (10 μM, apical and basolateral solutions) addition.

As usually defined, the EC50 is the concentration needed to bring the measured effect to its halfway point.

T1 sequence (P13569 whole entry F508del/G551D): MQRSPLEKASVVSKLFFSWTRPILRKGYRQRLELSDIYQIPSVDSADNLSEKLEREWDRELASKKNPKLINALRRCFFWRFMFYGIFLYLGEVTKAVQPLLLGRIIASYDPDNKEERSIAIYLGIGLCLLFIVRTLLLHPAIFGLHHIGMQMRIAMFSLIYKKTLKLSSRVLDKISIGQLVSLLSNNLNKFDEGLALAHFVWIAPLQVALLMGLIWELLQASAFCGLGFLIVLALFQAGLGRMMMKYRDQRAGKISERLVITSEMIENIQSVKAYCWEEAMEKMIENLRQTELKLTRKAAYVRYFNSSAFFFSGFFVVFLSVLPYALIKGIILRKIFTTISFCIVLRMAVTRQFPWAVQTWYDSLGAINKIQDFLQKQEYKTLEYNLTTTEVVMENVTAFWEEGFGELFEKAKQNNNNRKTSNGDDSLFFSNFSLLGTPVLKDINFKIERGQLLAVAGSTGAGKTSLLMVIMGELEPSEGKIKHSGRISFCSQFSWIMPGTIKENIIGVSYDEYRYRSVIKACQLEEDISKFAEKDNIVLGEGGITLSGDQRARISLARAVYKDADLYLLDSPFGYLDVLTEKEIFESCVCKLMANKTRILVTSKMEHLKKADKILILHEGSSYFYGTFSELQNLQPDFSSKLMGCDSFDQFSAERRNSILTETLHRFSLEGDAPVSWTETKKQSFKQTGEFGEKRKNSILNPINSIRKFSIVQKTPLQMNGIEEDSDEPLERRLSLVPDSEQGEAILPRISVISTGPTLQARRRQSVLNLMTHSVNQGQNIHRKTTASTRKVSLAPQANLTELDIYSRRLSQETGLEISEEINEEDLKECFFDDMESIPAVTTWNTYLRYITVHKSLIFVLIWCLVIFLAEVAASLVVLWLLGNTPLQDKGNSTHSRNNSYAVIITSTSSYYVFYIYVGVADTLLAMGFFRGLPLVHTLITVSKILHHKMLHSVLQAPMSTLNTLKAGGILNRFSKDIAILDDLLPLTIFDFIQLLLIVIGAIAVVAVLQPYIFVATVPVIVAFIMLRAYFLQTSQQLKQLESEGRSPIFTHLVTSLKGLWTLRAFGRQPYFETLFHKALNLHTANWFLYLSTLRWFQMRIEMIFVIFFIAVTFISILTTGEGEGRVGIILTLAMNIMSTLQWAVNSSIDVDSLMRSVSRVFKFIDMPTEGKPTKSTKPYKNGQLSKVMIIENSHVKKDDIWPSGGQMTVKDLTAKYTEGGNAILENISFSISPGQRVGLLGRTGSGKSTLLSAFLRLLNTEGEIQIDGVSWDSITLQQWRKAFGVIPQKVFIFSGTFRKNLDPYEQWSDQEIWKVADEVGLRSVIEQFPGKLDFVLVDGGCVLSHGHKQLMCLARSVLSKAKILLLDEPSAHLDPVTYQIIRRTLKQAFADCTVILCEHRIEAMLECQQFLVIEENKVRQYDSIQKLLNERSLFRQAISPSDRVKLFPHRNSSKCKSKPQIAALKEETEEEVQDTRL
Sequence of F508del‐CFTR (P13569 with tags, fused parts or gaps DEL508-508): as the sequence (P13569 whole entry F508del/G551D) above, with D550G counted along it

As for `Cc1ncccc1CNC(=O)c1ccc2c(c1)CC[C@H]1C[C@](O)(CCC(F)(F)F)CC[C@]21Cc1ccccc1` (racemic) [CP‐628006, rac‐(4bR,7R,8aS)‐4b‐benzyl‐7‐hydroxy‐N‐((2‐methylpyridin‐3‐yl)methyl)‐7‐(3,3,3‐trifluoropropyl)‐4b,5,6,7,8,8a,9,10‐octahydrophenanthrene‐2‐carboxamide], the “increase of time to normalised Po of 50% relative to low temperature-rescued” value on F508del‐CFTR (compound 10 μM) was “approximately 67%”. Besides, the “delay of F508del‐CFTR deactivation (time to reach normalised Po of 50%)” value at F508del‐CFTR (compound 10 μM, ATP 1 mM, PKA 75 nM, versus low temperature-rescued control) is listed as ~ 90 s. For the same molecule, in test [1], the EC50 stood at 0.14 µM and the Emax came out at 18%.
As for `CC(C)(C)c1cc(C(C)(C)C)c(NC(=O)c2c[nH]c3ccccc3c2=O)cc1O` [ivacaftor, reference compound], the “acceleration of F508del‐CFTR deactivation (time to reach normalised Po of 50%)” value at F508del‐CFTR (compound 1 μM, ATP 1 mM, PKA 75 nM, versus low temperature-rescued control) is given as ~ 30 s. For the same molecule, in test [1], the EC50 was 0.005 µM and the Emax worked out at 103%.
